ChEMBL document CHEMBL1201861, “Genomics of Drug Sensitity in Cancer screening data, Wellcome Trust Sanger Institute”

Legend:
Assay in all cases: cells
MV4-11 = type: functional, cell-based, Homo sapiens, MV-4-11; settings: Homo sapiens, MV4-11;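 further: cell viability readout measuring growth inhibition of human MV-4-11 cells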
Description: SANGER: Inhibition of human MV-4-11 cell growth in a cell viability assay.

SNU-C2B = type: functional, cell-based; settings: Homo sapiens;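 further: cell viability readout used to measure compound-driven suppression of SNU-C2B cell proliferation, IC50 marking half-maximal growth inhibition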
Description: SANGER: Inhibition of human SNU-C2B cell growth in a cell viability assay.

NCI-H69 = type: functional, cell-based, Homo sapiens; settings: Homo sapiens, NCI-H69;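 further: growth inhibition of the cell line, read out with a cell viability assay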
Description: SANGER: Inhibition of human NCI-H69 cell growth in a cell viability assay.

NEC8 = type: functional, cell-based, Homo sapiens; settings: Homo sapiens, NEC8;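 further: growth inhibition of human NEC8 cells, read out by a cell viability assay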
Description: SANGER: Inhibition of human NEC8 cell growth in a cell viability assay.

KGN = type: functional, cell-based, Homo sapiens; settings: Homo sapiens, KGN;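 further: growth inhibition of KGN cells, read out with a cell viability assay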
Description: SANGER: Inhibition of human KGN cell growth in a cell viability assay.

SK-LMS-1 = type: functional, cell-based, Homo sapiens; settings: Homo sapiens, SK-LMS-1;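 further: growth inhibition of human SK-LMS-1 cells, read out with a cell viability assay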
SK-N-DZ = type: functional, cell-based, Homo sapiens; settings: Homo sapiens, SK-N-DZ;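 further: growth inhibition of the cancer cell line, read out through a viability assay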
Description: SANGER: Inhibition of human SK-N-DZ cell growth in a cell viability assay.

NTERA-2-cl-D1 = type: functional, cell-based, Homo sapiens; settings: Homo sapiens, NTERA-2-cl-D1;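 further: inhibition of cell growth, measured with a cell viability assay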
Description: SANGER: Inhibition of human NTERA-S-cl-D1 cell growth in a cell viability assay.

MZ1-PC = type: functional, cell-based, Homo sapiens; settings: Homo sapiens, MZ1-PC;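 further: cell viability assay measuring growth inhibition of human MZ1-PC cells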
BT-474 = type: functional, cell-based, Homo sapiens; settings: Homo sapiens, BT-474
Description: SANGER: Inhibition of human BT-474 cell growth in a cell viability assay.

SK-N-FI = type: functional, cell-based, Homo sapiens; settings: Homo sapiens, SK-N-FI;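 further: cell viability assay measuring growth inhibition of human SK-N-FI cells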
Description: SANGER: Inhibition of human SK-N-FI cell growth in a cell viability assay.

NCI-H1648 = type: functional, cell-based, Homo sapiens; settings: Homo sapiens, NCI-H1648;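 further: cell viability assay measuring inhibition of NCI-H1648 cell growth, from the Sanger screening data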
Description: SANGER: Inhibition of human NCI-H1648 cell growth in a cell viability assay.

TE-9 = type: functional, cell-based, Homo sapiens; settings: Homo sapiens, TE-9;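 further: cell growth inhibition, measured with a cell viability readout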
Description: SANGER: Inhibition of human TE-9 cell growth in a cell viability assay.

LU-139 = type: functional, cell-based, Homo sapiens; settings: Homo sapiens, LU-139
D-247MG = type: functional, cell-based; settings: Homo sapiens
Description: SANGER: Inhibition of human D-247MG cell growth in a cell viability assay.

LS-1034 = type: functional, cell-based, Homo sapiens; settings: Homo sapiens, LS-1034
Description: SANGER: Inhibition of human LS-1034 cell growth in a cell viability assay.

RPMI-8226 = type: functional, cell-based, Homo sapiens; settings: Homo sapiens, RPMI-8226
Description: SANGER: Inhibition of human RPMI-8226 cell growth in a cell viability assay.

ES1 = type: functional, cell-based, Homo sapiens; settings: Homo sapiens, ES1;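 further: growth inhibition of ES1 cells, read out with a cell viability assay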
NB69 = type: functional, cell-based, Homo sapiens; settings: Homo sapiens, NB69;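 further: growth inhibition of NB69 cells, determined by a cell viability assay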
Description: SANGER: Inhibition of human NB69 cell growth in a cell viability assay.

SW982 = type: functional, cell-based; settings: Homo sapiens;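 further: growth inhibition of SW982 cells, read out with a cell viability assay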
Description: SANGER: Inhibition of human SW982 cell growth in a cell viability assay.

8-MG-BA = type: functional, cell-based, Homo sapiens; settings: Homo sapiens, 8-MG-BA;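 further: growth inhibition of 8-MG-BA cells, read out with a cell viability assay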
Description: SANGER: Inhibition of human 8-MG-BA cell growth in a cell viability assay.

TGW = type: functional, cell-based, Homo sapiens; settings: Homo sapiens, TGW;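 further: growth inhibition of human TGW cells, read out with a cell viability assay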
Description: SANGER: Inhibition of human TGW cell growth in a cell viability assay.

COLO-320-HSR = type: functional, cell-based, Homo sapiens; settings: Homo sapiens, COLO-320-HSR;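 further: growth inhibition of COLO-320-HSR cells, determined with a cell viability assay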
Description: SANGER: Inhibition of human COLO-320-HSR cell growth in a cell viability assay.

LB2518-MEL = type: functional, cell-based; settings: Homo sapiens;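 further: growth inhibition of human LB2518-MEL cells, measured with a cell viability assay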
JAR = type: functional, cell-based, Homo sapiens; settings: Homo sapiens, JAR;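 further: growth inhibition of human JAR cells determined with a cell viability assay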
Description: SANGER: Inhibition of human JAR cell growth in a cell viability assay.

RPMI-8866 = type: functional, cell-based, Homo sapiens; settings: Homo sapiens, RPMI-8866
A3-KAW = type: functional, cell-based, Homo sapiens; settings: Homo sapiens, A3-KAW;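 further: growth inhibition of human A3-KAW cells, read out with a cell viability assay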
SHP77 = type: functional, cell-based, Homo sapiens, SHP-77; settings: Homo sapiens, SHP77;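 further: growth inhibition of human SHP-77 cells measured by a cell viability assay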
NCI-H1355 = type: functional, cell-based, Homo sapiens; settings: Homo sapiens, NCI-H1355;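 further: growth inhibition of human NCI-H1355 cells, read out by a cell viability assay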
Description: SANGER: Inhibition of human NCI-H1355 cell growth in a cell viability assay.

BE-13 = type: functional, cell-based, Homo sapiens; settings: Homo sapiens, BE-13;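 further: growth inhibition of human BE-13 cells, measured with a cell viability assay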
Description: SANGER: Inhibition of human BE-13 cell growth in a cell viability assay.

EOL1 = type: functional, cell-based, Homo sapiens; settings: Homo sapiens, EOL1;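 further: growth inhibition of EoL-1 cells, read out by a cell viability assay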
TE-8 = type: functional, cell-based, Homo sapiens; settings: Homo sapiens, TE-8;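 further: growth inhibition of TE-8 cells, measured with a cell viability readout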
Description: SANGER: Inhibition of human TE-8 cell growth in a cell viability assay.

DSH1 = type: functional, cell-based; settings: Homo sapiens;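 further: growth inhibition of human DSH1 cells, measured with a cell viability readout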
Description: SANGER: Inhibition of human DSH1 cell growth in a cell viability assay.

MS-1 = type: functional, cell-based, Homo sapiens; settings: Homo sapiens, MS-1
Description: SANGER: Inhibition of human MS-1 cell growth in a cell viability assay.

RH-1 = type: functional, cell-based, Homo sapiens; settings: Homo sapiens, RH-1;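 further: growth inhibition of human RH-1 cells, read out with a cell viability assay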
NCI-H1299 = type: functional, cell-based; settings: Homo sapiens;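 further: growth inhibition of human NCI-H1299 cells, read out by a cell viability assay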
OCUB-M = type: functional, cell-based; settings: Homo sapiens;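 further: growth inhibition of the cancer cell line, read out through a cell viability assay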
SW 962 = type: functional, cell-based, Homo sapiens; settings: Homo sapiens, SW 962;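 further: growth inhibition of human SW962 cells, read out by a cell viability assay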
HEL = type: functional, cell-based, Homo sapiens; settings: Homo sapiens, HEL;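 further: growth inhibition of HEL cells, read out with a cell viability assay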
Description: SANGER: Inhibition of human HEL cell growth in a cell viability assay.

AM-38 = type: functional, cell-based, Homo sapiens; settings: Homo sapiens, AM-38;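 further: growth inhibition of AM-38 cells of human origin, read out by a cell viability assay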
Description: SANGER: Inhibition of human AM-38 cell growth in a cell viability assay.

NOMO-1 = type: functional, cell-based, Homo sapiens; settings: Homo sapiens, NOMO-1;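 further: growth inhibition of human NOMO-1 cells measured by a cell viability assay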
Description: SANGER: Inhibition of human NOMO-1 cell growth in a cell viability assay.

HCE-4 = type: functional, cell-based; settings: Homo sapiens;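 further: cell viability assay measuring inhibition of growth in the human HCE-4 cell line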
Description: SANGER: Inhibition of human HCE-4 cell growth in a cell viability assay.

NB13 = type: functional, cell-based, Homo sapiens; settings: Homo sapiens, NB13;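 further: cell viability readout measuring growth inhibition of human NB13 cells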
Description: SANGER: Inhibition of human NB13 cell growth in a cell viability assay.

SF-126 = type: functional, cell-based, Homo sapiens; settings: Homo sapiens, SF-126;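 further: growth inhibition of human SF126 cells, read out with a cell viability assay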
NMC-G1 = type: functional, cell-based, Homo sapiens; settings: Homo sapiens, NMC-G1;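 further: growth inhibition of the NMC-G1 cell line, measured with a cell viability read-out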
Description: SANGER: Inhibition of human NMC-G1 cell growth in a cell viability assay.

SK-MEL-1 = type: functional, cell-based, Homo sapiens; settings: Homo sapiens, SK-MEL-1;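 further: growth inhibition of human SK-MEL-1 cells, read out by a cell viability assay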
Description: SANGER: Inhibition of human SK-MEL-1 cell growth in a cell viability assay.

JVM-3 = type: functional, cell-based, Homo sapiens; settings: Homo sapiens, JVM-3;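 further: growth inhibition of human JVM-3 cells, read out with a cell viability assay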
Description: SANGER: Inhibition of human JVM-3 cell growth in a cell viability assay.

CCRF-CEM = type: functional, cell-based, Homo sapiens; settings: Homo sapiens, CCRF-CEM;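 further: inhibition of CCRF-CEM cell growth, measured by a cell viability assay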
Description: SANGER: Inhibition of human CCRF-CEM cell growth in a cell viability assay.

D283 Med = type: functional, cell-based, Homo sapiens; settings: Homo sapiens, D283 Med
Description: SANGER: Inhibition of human D-283MED cell growth in a cell viability assay.

HOP-62 = type: functional, cell-based, Homo sapiens; settings: Homo sapiens, HOP-62;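 further: cell growth inhibition determined with a viability assay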
A388 = type: functional, cell-based; settings: Homo sapiens;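 further: growth inhibition of human A388 cells, read out with a cell viability assay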
Description: SANGER: Inhibition of human A388 cell growth in a cell viability assay.

With `C[C@@H](Oc1cc(-c2cnn(C3CCNCC3)c2)cnc1N)c1c(Cl)ccc(F)c1Cl` [CRIZOTINIB] the IC50 (MV4-11) was greater than 2000 nM, the IC50 (SNU-C2B) was greater than 2000 nM and the IC50 (NCI-H69) was greater than 2000 nM. For the same compound, the IC50 (NEC8) was greater than 2000 nM, the IC50 (KGN) was greater than 2000 nM and the IC50 (SK-LMS-1) was 1770 nM. The IC50 (SK-N-DZ; read-out: IC50) was greater than 2000 nM, the IC50 (NTERA-2-cl-D1) was greater than 2000 nM and the IC50 (MZ1-PC) was greater than 2000 nM. For the same compound, the IC50 (BT-474) was greater than 2000 nM, the IC50 (SK-N-FI) was greater than 2000 nM and the IC50 (NCI-H1648) was greater than 2000 nM. It also gave an IC50 (TE-9) greater than 2000 nM, an IC50 (LU-139) greater than 2000 nM and an IC50 (D-247MG) greater than 2000 nM. It also gave an IC50 (LS-1034) greater than 2000 nM, an IC50 (RPMI-8226) greater than 2000 nM and an IC50 (ES1) greater than 2000 nM. The IC50 (NB69) was greater than 2000 nM, the IC50 (SW982) was greater than 2000 nM and the IC50 (8-MG-BA) was greater than 2000 nM. It also gave an IC50 (TGW) greater than 2000 nM, an IC50 (COLO-320-HSR) greater than 2000 nM and an IC50 (LB2518-MEL) greater than 2000 nM. For the same compound, the IC50 (JAR) was greater than 2000 nM, the IC50 (RPMI-8866) was greater than 2000 nM and the IC50 (A3-KAW) was greater than 2000 nM. The IC50 (SHP77) was greater than 2000 nM, the IC50 (NCI-H1355) was greater than 2000 nM and the IC50 (BE-13) was greater than 2000 nM. For the same compound, the IC50 (EOL1) was greater than 2000 nM, the IC50 (TE-8) was greater than 2000 nM and the IC50 (DSH1) was greater than 2000 nM. The IC50 (MS-1) was greater than 2000 nM, the IC50 (RH-1) was greater than 2000 nM and the IC50 (NCI-H1299) was greater than 2000 nM. It also gave an IC50 (OCUB-M) greater than 2000 nM, an IC50 (SW 962) greater than 2000 nM and an IC50 (HEL) greater than 2000 nM. The IC50 (AM-38) was greater than 2000 nM, the IC50 (NOMO-1) was greater than 2000 nM and the IC50 (HCE-4) was greater than 2000 nM. It also gave an IC50 (NB13) greater than 2000 nM, an IC50 (SF-126) greater than 2000 nM and an IC50 (NMC-G1) greater than 2000 nM. It also gave an IC50 (SK-MEL-1) greater than 2000 nM, an IC50 (JVM-3) greater than 2000 nM and an IC50 (CCRF-CEM) greater than 2000 nM. It also gave an IC50 (D283 Med) greater than 2000 nM, an IC50 (HOP-62) greater than 2000 nM and an IC50 (A388) greater than 2000 nM.
`Cc1ccc(NC(=O)c2ccc(CN3CCN(C)CC3)cc2)cc1Nc1nccc(-c2cccnc2)n1` [IMATINIB] gave an IC50 (MV4-11) greater than 2000 nM, an IC50 (SNU-C2B) greater than 2000 nM and an IC50 (NCI-H69) greater than 2000 nM. It also gave an IC50 (NEC8) greater than 2000 nM, an IC50 (KGN) greater than 2000 nM and an IC50 (SK-LMS-1) greater than 2000 nM. The IC50 (SK-N-DZ) was greater than 2000 nM, the IC50 (MZ1-PC) was greater than 2000 nM and the IC50 (BT-474) was greater than 2000 nM. It also gave an IC50 (SK-N-FI) greater than 2000 nM, an IC50 (NCI-H1648) greater than 2000 nM and an IC50 (TE-9) greater than 2000 nM. For the same compound, the IC50 (LU-139) was greater than 2000 nM, the IC50 (D-247MG) was greater than 2000 nM and the IC50 (LS-1034) was greater than 2000 nM. It also gave an IC50 (RPMI-8226) greater than 2000 nM, an IC50 (ES1) greater than 2000 nM and an IC50 (NB69) greater than 2000 nM. The IC50 (SW982) was greater than 2000 nM, the IC50 (8-MG-BA) was greater than 2000 nM and the IC50 (TGW) was greater than 2000 nM. The IC50 (COLO-320-HSR) was greater than 2000 nM, the IC50 (LB2518-MEL) was greater than 2000 nM and the IC50 (JAR) was greater than 2000 nM. For the same compound, the IC50 (RPMI-8866) was greater than 2000 nM, the IC50 (A3-KAW) was greater than 2000 nM and the IC50 (SHP77) was greater than 2000 nM. It also gave an IC50 (NCI-H1355) greater than 2000 nM, an IC50 (BE-13) greater than 2000 nM and an IC50 (EOL1) greater than 2000 nM. It also gave an IC50 (TE-8) greater than 2000 nM, an IC50 (DSH1) greater than 2000 nM and an IC50 (MS-1) greater than 2000 nM. For the same compound, the IC50 (RH-1) was greater than 2000 nM, the IC50 (NCI-H1299) was greater than 2000 nM and the IC50 (OCUB-M) was greater than 2000 nM. The IC50 (SW 962) was greater than 2000 nM, the IC50 (HEL) was greater than 2000 nM and the IC50 (AM-38) was greater than 2000 nM. The IC50 (NOMO-1) was greater than 2000 nM, the IC50 (HCE-4) was greater than 2000 nM and the IC50 (NB13) was greater than 2000 nM. It also gave an IC50 (SF-126) greater than 2000 nM, an IC50 (NMC-G1) greater than 2000 nM and an IC50 (SK-MEL-1) greater than 2000 nM. It also gave an IC50 (JVM-3) greater than 2000 nM, an IC50 (CCRF-CEM) greater than 2000 nM and an IC50 (D283 Med) greater than 2000 nM. The IC50 (HOP-62) was greater than 2000 nM and the IC50 (A388) was greater than 2000 nM.
